Assays:
human CB1 receptor [1] = target: T1, human CB1 receptor (Homo sapiens, UniProt P21554); test: bioSensAll β-arrestin plasma membrane (PM) translocation BRET biosensor (+GRK2) assay in transfected HEK293 cells, inhibition of CP-55,940 response; assay type: cell-based; conditions: HEK293 cells transfected with hCB1 and β-arrestin PM translocation biosensor (+GRK2), test compound then EC75 of CP-55,940 (100 nM), overnight incubation, read-out: CB1 wt βarr2 EC50
T1 construct: expressed in transfected cells; host or cells: HEK293
Method: (§1) Using polyethylenimine (PEI) transfection agent, HEK293 cells were transfected in suspension with the human CB1 or CB1 b receptor and one of the following bioSensAll® assays: GAPL-Gi2, or β-arrestin plasma membrane (PM) translocation biosensor (+GRK2). Cells were directly seeded in 96-well plates immediately following transfection.
(§2) Cells were incubated with coelenterazine (luciferase substrate) and different test compounds prior to the measurement of BRET signals.
(§3) Used in this project are i) Ga plasma membrane (GAPL) biosensors and the ii) β-arrestin plasma membrane translocation biosensor. • i) GAPL sensors are used to monitor the activation of heterotrimeric G proteins at the plasma membrane upon receptor stimulation. Specifically, these multimolecular BRET sensors detect the plasma membrane recruitment of proteins that interact with active Ga subunits in a G protein family-selective manner. G protein activation following receptor stimulation generally leads to an increase in the BRET signal. • ii) The multimolecular β-arrestin membrane recruitment biosensors allow for real-time spatio-temporal monitoring of β-arrestin 1 and β-arrestin 2 following GPCR activation. Specifically, these β-arrestin sensors were designed to detect the recruitment of proteins to the plasma membrane β-arrestin PM) with localization to compartment resulting in an increased BRET signal. c) Cell Culture Conditions HEK293 cells were maintained in Dulbecco's Modified Eagle Medium (DMEM) (Wisent; cat #319-030-CL: without sodium pyruvate, with 4.5 g/L glucose, without L-glutamine) supplemented with 1% penicillin-streptomycin (Wisent; cat #450-201-EL) and 2 or 10% fetal bovine serum (Wisent cat #090150).
(§4) HEK293 cells were co-transfected with hCB1 or hCB1b and one of the above-listed bioSensAll® assays. For each transfection condition: • the total amount of transfected DNA was kept constant at 1 μg per mL of cell culture to be transfected; whenever necessary, salmon sperm DNA (Invitrogen, cat #15632011) was used as ‘carrier’ DNA to supplement plasmid DNA (i.e., biosensor and receptor); • the PEI (polyethylenimine 25 kDa linear, PolyScience, cat #23966) to DNA ratio (ug:ug) was fixed at 3:1. Transfections were Carried Out as Follows: • DNA and PEI were first diluted separately in 150 mM NaCl. The volume of the diluent in each tube corresponds to 5% of the cell culture volume to be transfected. • Once DNA and PEI were diluted, the PEI-containing solution was added to the DNA solution and the DNA/PEI mixture immediately vortexed for 5 seconds. • The DNA/PEI mixture was incubated for at least 20 minutes at room temperature to allow for the formation of DNA/PEI complexes. • During the incubation, HEK293 cells were detached, counted and re-suspended in culture medium (composition specified above). • At the end of the incubation period, the DNA/PEI mixture was added to the cells. • Cells were finally distributed in 96-well plates (White Opaque 96-well/Microplates, Greiner, cat #655083 or CulturPlate-96, White Opaque 96-well Microplate, PerkinElmer, cat #6005688) at a density of 30 000 cells per well.
(§5) • Using 450-Select TS Biotek plate washer, culture medium was aspirated and replaced with 100 μl of Hank's Balanced Salt Solution buffer (HBSS) (Wisent, cat #319-067CL: without red phenol; with sodium bicarbonate, with calcium and magnesium, with HEPES) per well. This process was performed a total of two times (i.e., 2 washes). • After the washing step, the HP D300 digital dispenser (Tecan) was used to inject increasing doses (12) of test compounds (ranging from 0-600 nM) to wells. […]

human CB1 receptor [2] = target: T1, human CB1 receptor; test: bioSensAll GAPL-Gi2 BRET biosensor assay in transfected HEK293 cells, inhibition of CP-55,940 response; assay type: cell-based; conditions: HEK293 cells transfected with hCB1 and GAPL-Gi2 biosensor, test compound then EC75 of CP-55,940 (0.1 nM), overnight incubation, read-out: CB1 wt Gi2 EC50
Method: as §1, §2, §3, §4, §5

T1 sequence (P21554 whole entry): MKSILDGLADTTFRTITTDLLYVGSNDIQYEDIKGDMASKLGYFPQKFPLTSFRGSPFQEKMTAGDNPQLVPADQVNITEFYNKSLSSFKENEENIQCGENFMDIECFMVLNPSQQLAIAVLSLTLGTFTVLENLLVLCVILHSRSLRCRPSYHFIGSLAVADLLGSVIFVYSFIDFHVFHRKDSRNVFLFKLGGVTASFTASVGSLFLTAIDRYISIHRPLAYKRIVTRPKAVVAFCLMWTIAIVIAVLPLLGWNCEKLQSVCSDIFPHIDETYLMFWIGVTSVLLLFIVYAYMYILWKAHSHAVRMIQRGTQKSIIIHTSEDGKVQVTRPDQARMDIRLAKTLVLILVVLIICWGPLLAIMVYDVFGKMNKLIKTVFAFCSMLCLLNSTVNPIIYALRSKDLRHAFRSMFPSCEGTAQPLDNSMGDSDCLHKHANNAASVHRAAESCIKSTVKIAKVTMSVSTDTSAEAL

EC50 (human CB1 receptor [1]) [nM] | EC50 (human CB1 receptor [2]) [nM] | Compound
2.6 | 0.68 | CC(=O)NC(N)=NC(=NS(=O)(=O)c1cc(F)cc(F)c1)N1CCC(c2ccccc2)C(c2ccc(Cl)cc2)=N1 (single isomer, unassigned) [Compound 6 Isomer 2, N-[(E)-N′-[(Z)-C-[6-(4-chlorophenyl)-5-phenyl-4,5-dihydro-3H-pyridazin-2-yl]-N-(3,5-difluorophenyl)sulfonylcarbonimidoyl]carbamimidoyl]acetamide]
580 | 200 | CC(=O)N/C(N)=N\C(=N\S(=O)(=O)c1ccc(C(F)(F)F)cc1)N1CCC(c2ccccc2)C(c2ccc(Cl)cc2)=N1 (single isomer, unassigned) [Compound 7 Isomer 1, N-[(E)-N′-[(Z)-C-[6-(4-chlorophenyl)-5-phenyl-4,5-dihydro-3H-pyridazin-2-yl]-N-[4-(trifluoromethyl)phenyl]sulfonyl-carbonimidoyl]carbamimidoyl]acetamide]
380 | 39 | CC(=O)NC(N)=NC(=NS(=O)(=O)c1cc(F)cc(F)c1)N1CCC(c2ccccc2)C(c2ccc(Cl)cc2)=N1 (single isomer, unassigned) [Compound 6 Isomer 1, N-[(E)-N′-[(Z)-C-[6-(4-chlorophenyl)-5-phenyl-4,5-dihydro-3H-pyridazin-2-yl]-N-(3,5-difluorophenyl)sulfonylcarbonimidoyl]carbamimidoyl]acetamide]
8.5 | 1.9 | CC(=O)NC(=N)/N=C(/NS(=O)(=O)c1ccc(C(F)(F)F)cn1)N1CCC(c2ccccc2)C(c2ccc(Cl)cc2)=N1 (single isomer, unassigned) [Compound 8 Isomer 2, N-[(NE)-N-[[6-(4-chlorophenyl)-5-phenyl-4,5-dihydro-3H-pyridazin-2-yl]-[[5-(trifluoromethyl)-2-pyridyl]sulfonylamino]methylene]carbamimidoyl]acetamide]
2.1 | 0.42 | CC(=O)N/C(N)=N\C(=N\S(=O)(=O)c1ccc(C(F)(F)F)cc1)N1CCC(c2ccccc2)C(c2ccc(Cl)cc2)=N1 (single isomer, unassigned) [Compound 7 Isomer 2, N-[(E)-N′-[(Z)-C-[6-(4-chlorophenyl)-5-phenyl-4,5-dihydro-3H-pyridazin-2-yl]-N-[4-(trifluoromethyl)phenyl]sulfonyl-carbonimidoyl]carbamimidoyl]acetamide]
> 30000 | > 30000 | CC(=O)NC(=N)/N=C(/NS(=O)(=O)c1ccc(C(F)(F)F)cn1)N1CCC(c2ccccc2)C(c2ccc(Cl)cc2)=N1 (single isomer, unassigned) [Compound 8 Isomer 1, N-[(NE)-N-[[6-(4-chlorophenyl)-5-phenyl-4,5-dihydro-3H-pyridazin-2-yl]-[[5-(trifluoromethyl)-2-pyridyl]sulfonylamino]methylene]carbamimidoyl]acetamide]

Continued, molecule first:

Compound | EC50 (human CB1 receptor [1]) [nM] | EC50 (human CB1 receptor [2]) [nM]
CC(=O)N/C(N)=N/C(=N/S(=O)(=O)N1CCCCC1)N1CCC(c2ccccc2)C(c2ccc(Cl)cc2)=N1 (single isomer, unassigned) [Compound 2 Isomer 1, N-[(E)-N′-[(Z)-C-[6-(4-chlorophenyl)-5-phenyl-4,5-dihydro-3H-pyridazin-2-yl]-N-(1-piperidylsulfonyl)carbonimidoyl]carbamimidoyl]acetamide] | 23600 | 300
CC(=O)N/C(N)=N/C(=N/S(=O)(=O)N1CCCC(F)(F)C1)N1CCC(c2ccccc2)C(c2ccc(Cl)cc2)=N1 (single isomer, unassigned) [Compound 5 Isomer 1, N-[(E)-N′-[(Z)-C-[6-(4-chlorophenyl)-5-phenyl-4,5-dihydro-3H-pyridazin-2-yl]-N-[(3,3-difluoro-1-piperidyl)sulfonyl]carbonimidoyl]carbamimidoyl]acetamide] | 400 | 150
CC(=O)N/C(N)=N/C(=N/S(=O)(=O)N1CCC(F)(F)CC1)N1CCC(c2ccccc2)C(c2ccc(Cl)cc2)=N1 (single isomer, unassigned) [Compound 4 Isomer 1, N-[(E)-N′-[(Z)-C-[6-(4-chlorophenyl)-5-phenyl-4,5-dihydro-3H-pyridazin-2-yl]-N-[(4,4-difluoro-1-piperidyl)sulfonyl]carbonimidoyl]carbamimidoyl]acetamide] | > 30000 | > 30000
CC(=O)N/C(N)=N/C(=N/S(=O)(=O)N1CCC(C(F)(F)F)CC1)N1CCC(c2ccccc2)C(c2ccc(Cl)cc2)=N1 (single isomer, unassigned) [Compound 3 Isomer 2, N-[(E)-N′-[(Z)-C-[6-(4-chlorophenyl)-5-phenyl-4,5-dihydro-3H-pyridazin-2-yl]-N-[[4-(trifluoromethyl)-1-piperidyl]sulfonyl]carbonimidoyl]carbamimidoyl]acetamide] | 1.3 | 0.64
CC(=O)N/C(N)=N/C(=N/S(=O)(=O)N1CCC(F)(F)CC1)N1CCC(c2ccccc2)C(c2ccc(Cl)cc2)=N1 (single isomer, unassigned) [Compound 4 Isomer 2, N-[(E)-N′-[(Z)-C-[6-(4-chlorophenyl)-5-phenyl-4,5-dihydro-3H-pyridazin-2-yl]-N-[(4,4-difluoro-1-piperidyl)sulfonyl]carbonimidoyl]carbamimidoyl]acetamide] | 1.4 | 0.67
CC(=O)NC(N)=NC(=NS(=O)(=O)c1ccc(Cl)cc1)N1CCC(c2ccccc2)C(c2ccc(Cl)cc2)=N1 (single isomer, unassigned) [Compound 1 Isomer 2, N-[(E)-N′-[(Z)-C-[6-(4-chlorophenyl)-5-phenyl-4,5-dihydro-3H-pyridazin-2-yl]-N-(4-chlorophenyl)sulfonylcarbonimidoyl]carbamimidoyl]acetamide] | 3.3 | 1.2
CC(=O)N/C(N)=N/C(=N/S(=O)(=O)N1CCCC(F)(F)C1)N1CCC(c2ccccc2)C(c2ccc(Cl)cc2)=N1 (single isomer, unassigned) [Compound 5 Isomer 2, N-[(E)-N′-[(Z)-C-[6-(4-chlorophenyl)-5-phenyl-4,5-dihydro-3H-pyridazin-2-yl]-N-[(3,3-difluoro-1-piperidyl)sulfonyl]carbonimidoyl]carbamimidoyl]acetamide] | 0.72 | 0.43
CC(=O)N/C(N)=N/C(=N/S(=O)(=O)N1CCCCC1)N1CCC(c2ccccc2)C(c2ccc(Cl)cc2)=N1 (single isomer, unassigned) [Compound 2 Isomer 2, N-[(E)-N′-[(Z)-C-[6-(4-chlorophenyl)-5-phenyl-4,5-dihydro-3H-pyridazin-2-yl]-N-(1-piperidylsulfonyl)carbonimidoyl]carbamimidoyl]acetamide] | 1.5 | 0.65
CC(=O)N/C(N)=N/C(=N/S(=O)(=O)N1CCC(C(F)(F)F)CC1)N1CCC(c2ccccc2)C(c2ccc(Cl)cc2)=N1 (single isomer, unassigned) [Compound 3 Isomer 1, N-[(E)-N′-[(Z)-C-[6-(4-chlorophenyl)-5-phenyl-4,5-dihydro-3H-pyridazin-2-yl]-N-[[4-(trifluoromethyl)-1-piperidyl]sulfonyl]carbonimidoyl]carbamimidoyl]acetamide] | 14100 | 190
CC(=O)NC(N)=NC(=NS(=O)(=O)c1ccc(Cl)cc1)N1CCC(c2ccccc2)C(c2ccc(Cl)cc2)=N1 (single isomer, unassigned) [Compound 1 Isomer 1, N-[(E)-N′-[(Z)-C-[6-(4-chlorophenyl)-5-phenyl-4,5-dihydro-3H-pyridazin-2-yl]-N-(4-chlorophenyl)sulfonylcarbonimidoyl]carbamimidoyl]acetamide] | > 30000 | 430
